The values that follow are results of earlier work, collected in EP2610673B1, “Method for manufacturing lithographic printing plates” (FUJIFILM Corporation, priority 2011, dated 2013).

As for `CCC(C)CO` (stereo not shown) [2-methyl-1-butanol], the “solubility in 20°C water” value is 3.0 g/100 mL.
On to `CC(C)CCO` [3-methyl-1-butanol], for which the “solubility in 20°C water” value was 2.7 g/100 mL.
On to `CC(C)C(C)O` (stereo not shown) [3-methyl-2-butanol], for which the “solubility in 20°C water” value is 5.6 g/100 mL.
As for `CC(C)CC(C)O` (stereo not shown) [4-methyl-2-pentanol], the “solubility in 20°C water” value is on record as 2.0 g/100 mL.
Turning to `CCCCCO` [Example 1-pentanol, 1-pentanol], the “solubility in 20°C water” value is given as 2.7 g/100 mL.
For `CCCC(C)O` (stereo not shown) [Example 2-pentanol, 2-pentanol], the “solubility in 20°C water” value was 4.5 g/100 mL.
As for `CCCC(C)=O` [Example 2-pentanone, 2-pentanone], the “solubility in 20°C water” value is listed as 4.0 g/100 mL.
Consider `CCC(O)CC` [Example 3-pentanol, 3-pentanol], for which the “solubility in 20°C water” value is reported as 5.2 g/100 mL.
For `OCc1ccccc1` [benzyl alcohol], the “solubility in 20°C water” value is 4.0 g/100 mL.
In the case of `CCC(=O)CC` [diethyl ketone], the “solubility in 20°C water” value is given as 1.7 g/100 mL.
Take `CCCCOCCOCCOC(C)=O` [diethylene glycol monobutyl ether acetate]: the “solubility in 20°C water” value is 6.5 g/100 mL.
As for `OCCOc1ccccc1` [ethylene glycol monophenyl ether], the “solubility in 20°C water” value is reported as 2.7 g/100 mL.
As to `CC(=O)OC(C)C` [isopropyl acetate], the “solubility in 20°C water” value is given as 4.3 g/100 mL.
As to `CC(C)(C)CO` [neopentyl alcohol], the “solubility in 20°C water” value was 3.5 g/100 mL.
As to `CCCOC(C)=O` [propyl acetate], the “solubility in 20°C water” value is recorded as 1.6 g/100 mL.
As to `CCCCOCC(C)O` (stereo not shown) [propylene glycol mono-n-butyl ether], the “solubility in 20°C water” value was 4.4 g/100 mL.
